Patent US7807422B2, “Production of flavonoids by recombinant microorganisms” (The Research Foundation of State University of New York, priority 2004, dated 2010)
Each block holds one molecule with its values, some of them ahead of it.

Columns and labels:
[1] = tested on: Recombinant DFR F. ananassa; experiment: In vitro DFR/FNR enzymatic reaction, TLC analysis; assay type: biochemical, Fragaria ananassa; conditions: compound as substrate; pH 6.5, 30° C.
Description: (§1) Vector pTrcHis2-TOPO, either empty (control) or harboring the various cDNA sequences, was transformed into E. coli strain TOP10F′ (Invitrogen). Individual colonies were grown overnight in 3-mL Luria-Broth (LB) cultures with 100 μg/mL Ampicillin. The seed culture was used the following day to start a 50-mL main culture with an initial absorbance at 600 nm (A600) of 0.05. The main culture was left to grow at 37° C. until A600 reached 0.5-0.8. At that point, the inducer IPTG (isopropyl β-thiogalactoside) at a final concentration of 2 mM was added and the culture was left to grow for 4 hours at 30° C. Cells were harvested by centrifugation, resuspended in 5 mL of buffer (0.1 M K2HPO4/KH2PO4, pH 6.5), and lysed by either sonication or glass beads.
(§2) In vitro DFR and FNR enzymatic reactions were performed using 186 Bq of radiolabeled substrate and incubation was performed at 30° C. for 30 min−1 hour for DFR tests, and 30 min−2.5 hours for FNR tests. Ethyl acetate extraction was performed (twice) at the end of the incubation period, with 100 μL ethyl acetate. The organic phase was analyzed on a precoated TLC cellulose plate (Merck, Germany). The products, leucoanthocyanins and flavan-4-ols were separated from the respective substrates, dihydroflavonols and flavanones by chromatography in chloroform:acetic acid:water (10:9:1) system. The detection and quantification of radioactivity was performed using Fuji BAS1000 Bio-Imaging Analyzer. Protein content was determined using Lowry procedure with crystalline BSA as a standard. In vitro reaction products were identified by a previously published Rf values from in vitro reactions using heterologously expressed DFR proteins from Malus domestica (Punyasiri, et al., 2004, Arch. Biochem. Biophys., 431:22-30). Using TLC chromatography with chloroform:acetic acid:water (10:9:1), the Rf(×100) values for various flavonoids are DHK: 68; DHQ: 35; DHM: 11; NAR: 93; ERI: 61; LPg: 18; LCy: 8; LDp: 14; Apf: 45; Ltf: 18.
(§3) The in vitro reactions were performed using the optimal conditions (pH 6.5, 30° C.). […] No products were formed when using crude extract from E. coli harboring empty vector. DHQ and DHM were accepted as substrates by all seven recombinant enzymes, however, only the recombinant DFR enzymes derived from A. andraeanum, A. thaliana, I. nil, R. hybrida, and F. ananassa were able to catalyze the formation of LPg (Table 18). […] In addition, no LPg could be detected in assays using DFR from I. purpurea and L. hybrid even when the reaction period was extended and the amount of protein was increased up to 100 μg. In all cases, substrate specificity appeared to be independent of temperature or pH changes.

[2] = molecular target: T1, Recombinant DFR A. thaliana (Arabidopsis thaliana, UniProt P51102); experiment: In vitro DFR/FNR enzymatic reaction, TLC analysis; assay type: biochemical; conditions: compound as substrate; pH 6.5, 30° C.
T1 construct: We amplified full-length cDNA of various plant DFR open reading frames by PCR and RT-PCR; made in house; host or cells: E. coli TOP10F′ (crude lysate)
T1 sequence (P51102 1-382): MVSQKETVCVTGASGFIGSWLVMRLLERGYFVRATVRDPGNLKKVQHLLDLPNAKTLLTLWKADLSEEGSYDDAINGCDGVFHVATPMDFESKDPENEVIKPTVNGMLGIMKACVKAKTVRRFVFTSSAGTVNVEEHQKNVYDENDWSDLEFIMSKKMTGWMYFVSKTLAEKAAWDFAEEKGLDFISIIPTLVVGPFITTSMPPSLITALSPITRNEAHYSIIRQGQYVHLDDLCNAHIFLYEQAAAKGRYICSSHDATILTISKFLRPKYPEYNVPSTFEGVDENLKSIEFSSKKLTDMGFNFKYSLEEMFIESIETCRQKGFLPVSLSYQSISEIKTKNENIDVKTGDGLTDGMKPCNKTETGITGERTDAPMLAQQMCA
Description: as §1, §2, §3

[3] = tested on: Recombinant DFR R. hybrida; experiment: In vitro DFR/FNR enzymatic reaction, TLC analysis; assay type: biochemical, Rosa hybrida; conditions: compound as substrate; pH 6.5, 30° C.
Description: as §1, §2, §3

[4] = tested on: Recombinant DFR I. nil; experiment: In vitro DFR/FNR enzymatic reaction, TLC analysis; assay type: biochemical, Ipomoea nil; conditions: compound as substrate; pH 6.5, 30° C.
Description: as §1, §2, §3

[5] = tested on: Recombinant DFR L. hybrid; experiment: In vitro DFR/FNR enzymatic reaction, TLC analysis; assay type: biochemical, Lilium hybrid; conditions: compound as substrate; pH 6.5, 30° C.
Description: as §1, §2, §3

[6] = tested on: Recombinant DFR A. andraeanum; experiment: In vitro DFR/FNR enzymatic reaction, TLC analysis; assay type: biochemical, Anthurium andraeanum; conditions: compound as substrate; pH 6.5, 30° C.
Description: as §1, §2, §3

[7] = tested on: Recombinant DFR I. purpurea; experiment: In vitro DFR/FNR enzymatic reaction, TLC analysis; assay type: biochemical, Ipomoea purpurea; conditions: compound as substrate; pH 6.5, 30° C.
Description: as §1, §2, §3

[8] = tested on: E. coli BL21 Star; experiment: Effect of phenylpropanoid acids on E. coli growth (growth curves); assay type: cell-based
Description: Growth Curves. In order to investigate the effect of Phenylpropanoid acids on E. coli growth, E. coli BL21 Star was inoculated in 3 ml M9 liquid minimum medium and was left to grow at 37° C. overnight (preinoculum). The following day, 1 ml from the preinoculum was transferred to either 50 ml M9 minimal or Luria-Bertani (LB) rich liquid medium and p-coumaric acid, caffeic acid or cinnamic acid were added in the culture at different final concentrations (0 mM, 0.2 mM, 0.5 mM, 1 mM and 2 mM). Cell growth was monitored by measuring the absorbance at 600 nm (A600).
Phenylpropanoid acids reduce E. coli growth. We tested the effect of both p-coumaric acid and cinnamic acid on E. coli growth by incubating BL21 Star in M9 minimum medium and LB rich medium in the presence of different concentration of these compounds (0 mM, 0.05 mM, 0.1 mM, 0.15 mM, 0.2 mM, 1 mM, and 2 mM). […] For example, in the case of p-coumaric acid in […], the growth rate dropped from 0.28 h^−1 (control, 0 mM) to 0.18 h^−1 (2 mM). Similarly, for cinnamic acid the growth rate dropped from 0.27 h^−1 (control, 0 mM) to 0.17 h^−1 (2 mM) in M9 minimal medium.

[9] = tested on: S. cerevisiae strain INVSC1 carrying plasmid Ycc4c181; experiment: Growth of recombinant yeast fed with phenylpropanoid acids; assay type: cell-based; conditions: preliminary data
Description: Yeast Shake Flask Experiment. A single colony of strain INVSC1 carrying plasmid Ycc4c181 was inoculated into 15 ml of SC-Leu minimal medium containing 2% glucose and was left to grow overnight at 30° C. with shaking (preinoculum). The following day, 50 ml induction medium (SC-Leu medium containing 2% galactose) was seeded with medium-free preinoculum to a final absorbance at 600 nm (A600) of 0.4. Cells were then left to grow at 30° C. with vigorous shaking for 4 hours. At that time, 50 μl of a 0.25 M stock solution of substrate (cinnamic acid, p-coumaric acid, caffeic acid or ferulic acid) were added to the culture to a final concentration of 0.25 mM. The culture was left to grow at 30° C. for a total of 65 hours with horizontal shaking. During that time, the culture was supplemented with another 50 μl of substrate stock every 12 hours for a total of 4 times.
Cinnamic acid was provided in a total of 5 increments to the culture. […] In all cases, after 65 hours of fermentation, only trace amounts of cinnamic acid were detected in the culture.
Flavanone compounds were identified by comparison of the retention time and UV profile with those of authentic standards and literature data.

[10] = tested on: A. andraeanum DFR; experiment: Biotransformation assay of flavanones with recombinant E. coli harboring Anthurium DFR (flavanone reductase activity); assay type: cell-based, Anthurium andraeanum; conditions: substrate 0.4 mg/mL, 30° C., 24 hours, HPLC
Description: Seed cultures of recombinant E. coli harboring Anthurium DFR were grown in LB with 100 μg/mL ampicillin. After 24 hours, the preinoculum was used to seed a 50-mL main culture which was incubated at 37° C. until A600 reached 0.5. IPTG and flavanone substrates were added at a final concentration of 2 mM and 0.4 mg/mL respectively, and incubation proceeded at 30° C. for 24 hours before harvesting. Flavonoid products in the culture supernatant were extracted twice with an equal volume of ethyl acetate. The organic solvent was collected and evaporated using a rotary evaporator, and the residue was dissolved in water.
The products were analyzed by HPLC using an Agilent HPLC 1100 series instrument with a diode array detector. HPLC was carried out using a reverse phase ZORBAX SB-C18 column (diameter 4.6 mm×150 mm) using an acetonitrile (solvent A) and water (solvent B) gradient at a flow rate of 1 ml/min. The HPLC program conditions used were as follows: 10% to 40% A (0-10 min), 40% to 60% A (10-15 min), 60% A (15-20 min). Absorbance at 280 nm was monitored in all cases. […] The UV maximum for the various flavan-4-ols synthesized were: 276 nm for 2,4-cis-flavan-4-ol; 275 nm for 2,4-trans-flavan-4-ol; 281 nm for 2,4-cis-7-hydroxyflavan-4-ol; and 279 nm for 2,4-trans-7-hydroxyflavan-4-ol.
Besides NAR and ERI, four other commercially available flavanones were tested as substrates using the recombinant A. andraeanum DFR enzyme. The biotransformation assay was chosen for that purpose, since these flavanones cannot be synthesized as radio-isotopomers.

[11] = tested on: flavanone biosynthesis in recombinant yeast strain INV-4G; experiment: Naringenin production from coumaric acid by INV-4G in the presence of apigenin (feedback inhibition); assay type: cell-based, S. cerevisiae
Excerpt: Heterologous expression and fermentation. In order to assemble the two different flavone biosynthetic pathways, recombinant INVSc1 carrying plasmid Ycc4c181G was transformed with YC-FSI, YC-FSII or YC-FSII+CPR1 separately, yielding recombinant strains INV-4G+FSI, INV-4G+FSII, and INV-4G+FSII+CPR1. Yeast colonies harboring both plasmids were selected upon growth on SC agar plates lacking leucine and tryptophan (SC-Leu-Trp-). For flavone fermentation purposes, an individual recombinant yeast colony was grown overnight in 10-mL liquid SC-Leu-Trp-containing glucose at 30° C. with shaking. The following day, a portion of this culture was used to seed the main culture of SC-Leu-Trp-containing galactose and raffinose or MA-Leu-Trp-containing galactose and acetate to an Ab600 of 0.4. 0.5 mM of phenylpropanoid acid (cinnamic acid, p-coumaric acid, caffeic acid, ferulic acid) was then added to the main culture, and incubation was carried out at 30° C. with horizontal shaking for a maximum of 92 hours.
Considering that INV-4G+FSI produced more apigenin than INV-4G+FSII+CPR1, we tested the possibility that flavanone biosynthesis is feedback—inhibited by apigenin. For this purpose, recombinant yeast strain carrying only the four flavanone biosynthetic genes (INV-4G) was created by simultaneously inserting YP-4G and empty YCplac22 plasmid. INV-4G was then tested for the ability to generate naringenin from coumaric acid, in the presence of apigenin. […] In the presence of 1 mg/L apigenin, the production of naringenin at stationary phase was reduced by 14%.

[12] = tested on: E. coli JM109 carrying plasmid pK184; experiment: Effect of naringenin on E. coli growth; assay type: cell-based
Description: E. coli shake-flask experiments. The identification of compounds produced from recombinant E. coli strain JM109 carrying plasmid pDGFA184 was done in a similar way to what has already been described in the literature Hwang et al., 2003, Appl. Environ Microbiol., 69:2699-2706). More specifically, 3 ml of Luria-Broth rich medium containing 50 ug/ml kanamycin was inoculated with the recombinant strain and was incubated at 37° C. with vigorous shaking. The next day, 200 ml of LB containing 50 μg/ml kanamycin was inoculated with 1 ml of overnight culture and the culture was incubated at 37° C. with vigorous shaking at 300 rpm to an OD600 of approximately 0.6. Next, the inducer IPTG was added to the culture to a final concentration of 1 mM. In order to avoid the formation of inclusion bodies, after the addition of the inducer the culture was incubated at room temperature with vigorous shaking overnight. Next day the cells were harvested by centrifugation and washed twice with M9 minimal medium. The pellets were then resuspended in 200 ml M9 minimal medium containing 50 μg/ml kanamycin, 1 mM IPTG and various concentrations of naringenin. In order to measure growth curves, the cultures were left to grow at room temperature with vigorous shaking until late stationary phase was reached. For flavonoid extraction experiments, the cultures were left to grow at room temperature for 65 h, again with horizontal vigorous shaking.
We tested the effect of naringenin on E. coli growth by incubating cultures of JM109 carrying plasmid pK184 in M9 minimal medium (50 μg/ml kanamycin) in the presence of different concentrations of naringenin (0.1 mM, 0.3 mM, 0.5 mM and 1 mM).

Specific activity [2]: 0.002 pkatal/mg
Compound: O=C1c2c(O)cc(O)cc2O[C@H](c2ccc(O)cc2)[C@H]1O [DHK, dihydrokaempferol]
Specific activity [1]: 14 pkatal/mg
Specific activity [3]: 0.4 pkatal/mg
Specific activity [4]: 0.3 pkatal/mg
Specific activity [5]: 0 pkatal/mg
Specific activity [6]: 21 pkatal/mg
Specific activity [7]: 0 pkatal/mg

Specific activity [2]: 1.0 pkatal/mg
Compound: O=C1c2c(O)cc(O)cc2O[C@H](c2cc(O)c(O)c(O)c2)[C@H]1O [DHM, dihydromyricetin]
Specific activity [1]: 1.4 pkatal/mg
Specific activity [3]: 1.3 pkatal/mg
Specific activity [4]: 1.5 pkatal/mg
Specific activity [5]: 1.2 pkatal/mg
Specific activity [6]: 1.4 pkatal/mg
Specific activity [7]: 1.5 pkatal/mg

Compound: O=C(O)C=Cc1ccccc1 [cinnamic acid]
growth rate ([8]; 2 mM cinnamic acid, M9 minimal medium): 0.17 h⁻¹
concentration in the medium resulting in significant cell growth arrest [9]: above 0.5 mM

Compound: O=C1CC(c2ccccc2)Oc2ccccc21 (stereo not drawn) [flavanone]
reduction to the corresponding flavan-4-ol [10]: able to reduce

Compound: O=C(O)/C=C/c1ccc(O)cc1 [p-coumaric acid]
growth rate ([8]; 2 mM p-coumaric acid, M9 rich medium): 0.18 h⁻¹

Specific activity [2]: 0.6 pkatal/mg
Compound: O=C1C[C@@H](c2ccc(O)c(O)c2)Oc2cc(O)cc(O)c21 [ERI, eriodictyol]
Specific activity [1]: 0.6 pkatal/mg
Specific activity [3]: 0.7 pkatal/mg
Specific activity [4]: 0.6 pkatal/mg
Specific activity [5]: 0.6 pkatal/mg
Specific activity [6]: 0.8 pkatal/mg
Specific activity [7]: 0.6 pkatal/mg

Compound: COc1ccc([C@@H]2CC(=O)c3c(O)cc(O)cc3O2)cc1O [hesperetin]
reduction to the corresponding flavan-4-ol [10]: not

Compound: O=c1cc(-c2ccc(O)cc2)oc2cc(O)cc(O)c12 [apigenin]
production of naringenin at stationary phase reduced by ([11]; 1 mg/L apigenin): 14%
naringenin production decline ([11]; 3 mg/L apigenin): approximately 60%
naringenin production decline ([11]; 10 mg/L apigenin): ~85%

Compound: O=C1C[C@@H](c2ccc(O)cc2)Oc2cc(O)cc(O)c21 [naringenin]
final dry cell weight concentration ([12]; 1 mM naringenin in minimal medium, after 13 h cell growth): 0.492 mg/mL
reduction in the final dry cell weight ([12]; 1 mM naringenin vs control, 13 h): 16%
maximum specific growth rate ([12]; 1 mM naringenin, M9 minimal medium): 0.14 h⁻¹
OD600 (final cell mass) ([12]; 1 mM naringenin, after 13 h of growth): 1.0
Specific activity [1]: 0.5 pkatal/mg
Specific activity [2]: 0 pkatal/mg
Specific activity [3]: 0.4 pkatal/mg
Specific activity [4]: 0.3 pkatal/mg
Specific activity [5]: 0 pkatal/mg
Specific activity [6]: 0.7 pkatal/mg
Specific activity [7]: 0 pkatal/mg

Specific activity [2]: 1.3 pkatal/mg
Compound: O=C1c2c(O)cc(O)cc2O[C@H](c2ccc(O)c(O)c2)[C@H]1O [DHQ, dihydroquercetin]
Specific activity [1]: 1.2 pkatal/mg
Specific activity [3]: 1.0 pkatal/mg
Specific activity [4]: 1.3 pkatal/mg
Specific activity [5]: 1.3 pkatal/mg
Specific activity [6]: 1.4 pkatal/mg
Specific activity [7]: 1.2 pkatal/mg

Compound: COc1cc(OC)c2c(c1)OC(c1ccccc1)CC2=O (stereo not drawn) [5,7-dimethoxyflavanone]
reduction to the corresponding flavan-4-ol [10]: not
